Results taken from ChEMBL document CHEMBL5360577, “Multicomponent Petasis reaction for the identification of pyrazine based multi-target directed anti-Alzheimer's agents: In-silico design, synthesis, and characterization” (Eur J Med Chem, 2023).
Active and inactive are the calls of the source. No cut-off for these calls is given here.

Key:
[1] = target: T1, Microtubule-associated protein tau (Homo sapiens, UniProt P10636); assay: Inhibition of cellular tau (unknown origin) aggregation incubated for 2 hrs by FRET assay
T1 sequence (P10636 whole entry): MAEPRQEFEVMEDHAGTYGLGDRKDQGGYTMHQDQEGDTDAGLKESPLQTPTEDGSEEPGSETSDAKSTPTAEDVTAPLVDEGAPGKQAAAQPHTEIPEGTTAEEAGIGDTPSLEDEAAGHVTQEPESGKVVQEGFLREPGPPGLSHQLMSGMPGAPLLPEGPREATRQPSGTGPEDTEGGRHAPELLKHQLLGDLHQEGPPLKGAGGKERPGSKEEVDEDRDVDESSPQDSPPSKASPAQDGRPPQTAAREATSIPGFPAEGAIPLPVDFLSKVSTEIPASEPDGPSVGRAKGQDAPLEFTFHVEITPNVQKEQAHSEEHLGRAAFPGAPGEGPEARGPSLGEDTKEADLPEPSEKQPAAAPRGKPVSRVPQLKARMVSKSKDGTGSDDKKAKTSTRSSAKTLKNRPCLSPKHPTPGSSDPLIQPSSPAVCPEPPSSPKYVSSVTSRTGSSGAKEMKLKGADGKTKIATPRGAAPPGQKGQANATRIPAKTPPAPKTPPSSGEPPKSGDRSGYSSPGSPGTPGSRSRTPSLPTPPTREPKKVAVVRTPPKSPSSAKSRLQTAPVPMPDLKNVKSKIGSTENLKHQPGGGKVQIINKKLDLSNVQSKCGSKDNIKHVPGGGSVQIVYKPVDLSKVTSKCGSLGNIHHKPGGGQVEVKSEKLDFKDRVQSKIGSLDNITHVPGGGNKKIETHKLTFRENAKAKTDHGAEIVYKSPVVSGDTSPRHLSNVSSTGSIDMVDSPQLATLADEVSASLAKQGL

SH-SY5Y = assay: Neuroprotective activity in human SH-SY5Y cell model transfected with wild-type tau assessed as cell viability at 1 to 10 uM by MTT assay; type: functional, cell-based; settings: dose 1-10 µM
Acetylcholinesterase [2] = target: T2, Acetylcholinesterase (Homo sapiens, UniProt P22303); assay: Inhibition of human AChE using acetylthiocholine as substrate at 10 uM by Ellman's method
T2 sequence (P22303 whole entry): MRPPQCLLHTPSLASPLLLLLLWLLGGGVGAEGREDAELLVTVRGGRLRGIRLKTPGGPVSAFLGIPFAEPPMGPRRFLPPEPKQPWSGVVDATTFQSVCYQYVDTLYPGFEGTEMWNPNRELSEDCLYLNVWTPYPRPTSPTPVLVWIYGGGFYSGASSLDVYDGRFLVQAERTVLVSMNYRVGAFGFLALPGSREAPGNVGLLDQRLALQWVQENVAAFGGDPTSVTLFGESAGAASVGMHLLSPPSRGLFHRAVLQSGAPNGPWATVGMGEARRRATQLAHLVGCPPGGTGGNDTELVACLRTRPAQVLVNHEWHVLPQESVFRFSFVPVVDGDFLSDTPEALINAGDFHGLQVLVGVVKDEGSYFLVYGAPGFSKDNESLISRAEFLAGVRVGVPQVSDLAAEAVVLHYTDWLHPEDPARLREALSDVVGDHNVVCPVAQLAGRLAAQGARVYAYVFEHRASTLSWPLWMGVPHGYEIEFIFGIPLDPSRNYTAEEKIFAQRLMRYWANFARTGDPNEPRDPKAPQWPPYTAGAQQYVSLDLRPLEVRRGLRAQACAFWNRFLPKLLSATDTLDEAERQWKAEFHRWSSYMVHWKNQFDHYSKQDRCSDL

[3] = target: T1, Microtubule-associated protein tau; assay: Inhibition of cellular tau (unknown origin) aggregation at 10 uM incubated for 2 hrs by FRET assay
Acetylcholinesterase [4] = target: T2, Acetylcholinesterase; assay: Inhibition of human AChE using acetylthiocholine as substrate by Ellman's method
Acetylcholinesterase [5] = target: T2, Acetylcholinesterase; assay: Inhibition of human AChE using acetylthiocholine as substrate at 10 uM by Ellman's method relative to control
[6] = target: Amyloid-beta precursor protein (Homo sapiens) (UniProt P05067); assay: Inhibition of amyloid beta (unknown origin) aggregation at 10 uM relative to control
Chain of Amyloid-beta precursor protein (Homo sapiens) (P05067 whole entry): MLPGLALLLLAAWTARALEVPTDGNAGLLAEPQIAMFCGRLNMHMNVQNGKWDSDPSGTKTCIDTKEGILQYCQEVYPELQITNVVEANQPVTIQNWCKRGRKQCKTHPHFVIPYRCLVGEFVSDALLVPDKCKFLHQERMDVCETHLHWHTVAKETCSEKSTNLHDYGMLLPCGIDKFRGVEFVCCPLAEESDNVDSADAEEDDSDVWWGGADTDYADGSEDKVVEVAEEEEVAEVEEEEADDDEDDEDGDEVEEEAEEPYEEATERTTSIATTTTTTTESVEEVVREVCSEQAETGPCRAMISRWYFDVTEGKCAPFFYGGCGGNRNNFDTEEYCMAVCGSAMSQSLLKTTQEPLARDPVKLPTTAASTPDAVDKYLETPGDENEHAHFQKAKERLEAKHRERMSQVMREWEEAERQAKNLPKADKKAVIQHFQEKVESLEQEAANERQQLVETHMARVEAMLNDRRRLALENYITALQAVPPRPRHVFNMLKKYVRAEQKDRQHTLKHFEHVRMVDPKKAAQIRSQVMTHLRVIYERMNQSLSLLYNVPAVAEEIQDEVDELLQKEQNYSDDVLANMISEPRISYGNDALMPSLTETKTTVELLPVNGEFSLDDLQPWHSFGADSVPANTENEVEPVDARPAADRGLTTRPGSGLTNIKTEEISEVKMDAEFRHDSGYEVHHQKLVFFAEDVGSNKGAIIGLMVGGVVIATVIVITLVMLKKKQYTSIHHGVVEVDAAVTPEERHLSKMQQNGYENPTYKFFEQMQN

[7] = target: T1, Microtubule-associated protein tau; assay: Inhibition of tau (unknown origin) aggregation at 10 uM relative to control
Cholinesterase = Cholinesterase (Homo sapiens, UniProt P06276); assay: Inhibition of human BuChE by Ellman's method
Chain of Cholinesterase (P06276 whole entry): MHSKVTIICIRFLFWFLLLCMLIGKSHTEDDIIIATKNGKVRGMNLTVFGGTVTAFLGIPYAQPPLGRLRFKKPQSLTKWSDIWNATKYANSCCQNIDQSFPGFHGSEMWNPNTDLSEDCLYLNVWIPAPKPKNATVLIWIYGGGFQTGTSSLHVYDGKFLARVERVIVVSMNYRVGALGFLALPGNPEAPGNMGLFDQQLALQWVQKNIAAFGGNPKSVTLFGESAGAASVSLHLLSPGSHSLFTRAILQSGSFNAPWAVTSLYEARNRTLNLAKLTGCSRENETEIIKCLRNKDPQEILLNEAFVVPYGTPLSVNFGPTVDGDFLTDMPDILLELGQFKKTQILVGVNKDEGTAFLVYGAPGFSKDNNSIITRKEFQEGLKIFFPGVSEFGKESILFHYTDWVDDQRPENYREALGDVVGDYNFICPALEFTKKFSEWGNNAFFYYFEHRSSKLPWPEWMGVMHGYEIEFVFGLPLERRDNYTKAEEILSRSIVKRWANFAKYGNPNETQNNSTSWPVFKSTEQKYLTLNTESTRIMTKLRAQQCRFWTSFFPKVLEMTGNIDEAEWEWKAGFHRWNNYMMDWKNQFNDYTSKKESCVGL

Acetylcholinesterase [8] = target: T2, Acetylcholinesterase; assay: Inhibition of human AChE by Ellman's method
[9] = target: T3, Amine oxidase [flavin-containing] B (Homo sapiens, UniProt P27338); assay: Inhibition of human MAO-B by fluorometric assay
T3 sequence (P27338 whole entry): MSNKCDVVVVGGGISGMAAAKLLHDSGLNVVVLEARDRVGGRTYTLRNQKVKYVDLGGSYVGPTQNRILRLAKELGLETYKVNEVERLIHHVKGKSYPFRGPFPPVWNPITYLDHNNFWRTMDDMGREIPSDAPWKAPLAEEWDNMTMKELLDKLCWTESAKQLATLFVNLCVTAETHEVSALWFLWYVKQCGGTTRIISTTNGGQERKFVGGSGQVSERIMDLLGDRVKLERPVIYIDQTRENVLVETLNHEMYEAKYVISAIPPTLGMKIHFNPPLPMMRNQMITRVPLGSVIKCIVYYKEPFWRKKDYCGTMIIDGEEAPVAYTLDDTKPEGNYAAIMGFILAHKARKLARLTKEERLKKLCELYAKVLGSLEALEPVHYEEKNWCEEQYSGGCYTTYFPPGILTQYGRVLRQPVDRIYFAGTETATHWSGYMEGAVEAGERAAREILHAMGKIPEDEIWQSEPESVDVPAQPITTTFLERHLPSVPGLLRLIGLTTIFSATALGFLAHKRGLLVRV

| Structure (SMILES) | EC50 [1] | Activity (SH-SY5Y) | inhibition (Acetylcholinesterase [2]) | inhibition [3] | IC50 (Acetylcholinesterase [4]) | also measured |
| --- | --- | --- | --- | --- | --- | --- |
| Cc1ccc(C(c2ccccc2O)N2CCN(c3cnccn3)CC2)cc1 (configuration not stated) | 2.71 µM | Active | Active | Active | 1.09 µM | – |
| Oc1ccccc1C(c1ccc(C(F)(F)F)cc1)N1CCN(c2cnccn2)CC1 (configuration not stated) | – | – | Active | – | – | inhibition (Acetylcholinesterase [5]): < 40% |
| COc1cccc(C(c2ccc(F)cc2)N2CCN(c3cnccn3)CC2)c1O (configuration not stated) | 2.21 µM | Active | Active | Active | 0.71 µM | – |
| OC(CNCCC(c1ccccc1)c1ccccc1)CNCc1ccccc1 (configuration not stated) | – | – | – | – | – | inhibition [6]: 80%; inhibition [7]: 68% |
| Cc1cc(C)c(C(=O)/C=C/c2nc(C)c(C)nc2C)cc1C | – | – | – | – | – | IC50 (Cholinesterase): 37.6 µM; IC50 (Acetylcholinesterase [8]): 2.4 µM; IC50 [9]: 11.2 µM |
